From US6372747B1, “Farnesyl protein transferase inhibitors” (Schering Corporation, priority 1998, dated 2002) come the findings set out here.

Each structure is given as a SMILES string.

A word on the melting point: it is the temperature of the solid-liquid transition. For the compound `CC(C)(CCNC(=O)[C@H]1CN(C2c3ccc(Cl)cc3CCc3cc(Br)cnc32)CCN1S(C)(=O)=O)n1ccnc1` (mixture of isomers) [Example 15], the melting point was in the range of 107 to 110 °C.
Under `Cn1cncc1CCNC(=O)[C@H]1CN(C2c3ccc(Cl)cc3CCc3cc(Br)cnc32)CCN1C(=O)Nc1ccc(F)cc1` (single isomer, unassigned) [Example 27] stands 140.1 to 149.4 °C; under `Cn1cncc1CCNC(=O)[C@H]1CN(C2c3ccc(Cl)cc3CCc3cc(Br)cnc32)CCN1C(=O)NC(C)(C)C` (single isomer, unassigned) [Example 28], 128.1 to 135.2 °C; under `CC(C)NC(=O)N1CCN(C2c3ccc(Cl)cc3CCc3cc(Br)cnc32)C[C@@H]1C(=O)NCCc1cncn1C` (single isomer, unassigned) [Example 29], 128.1 to 133.4 °C.
Turning to `CC(C)OC(=O)N1CCN(C2c3ccc(Cl)cc3CCc3cc(Br)cnc32)C[C@@H]1C(=O)NCCc1cncn1C` (single isomer, unassigned) [Example 30], the melting point fell in the range of 120.3 to 126.1 °C.
`Cn1cncc1CCNC(=O)[C@H]1CN(C2c3ccc(Cl)cc3CCc3cc(Br)cnc32)CCN1C(=O)N1CCOCC1` (single isomer, unassigned) [Example 31] yielded a melting point of 136.4 to 138.6 °C.
The result for `Cn1cncc1CCNC(=O)[C@H]1CN(C2c3ccc(Cl)cc3CCc3cc(Br)cnc32)CCN1C(=O)OC(C)(C)C` (single isomer, unassigned) [Example 32] reads 134.9 to 137.5 °C; that for `Cn1cncc1CCNC(=O)[C@H]1CN(C2c3ccc(Cl)cc3CCc3cc(Br)cnc32)CCN1S(C)(=O)=O` (single isomer, unassigned) [Example 33], 139 to 145.1 °C; that for `Cn1cncc1CCNC(=O)[C@H]1CN(C2c3ccc(Cl)cc3CCc3cc(Br)cnc32)CCN1C(=O)c1ccc(F)cc1` (single isomer, unassigned) [Example 34], 144.9 to 148.7 °C.
The result for `Cn1cncc1CCNC(=O)[C@H]1CN(C2c3ccc(Cl)cc3CCc3cc(Br)cnc32)CCN1C(=O)Cc1ccc(F)cc1` (single isomer, unassigned) [Example 35] reads 132.5 to 139.7 °C.
`Cn1cncc1CCNC(=O)[C@H]1CN(C2c3ccc(Cl)cc3CCc3cc(Br)cnc32)CCN1C(=O)Cc1cc[n+]([O-])cc1` (single isomer, unassigned) [Example 36]: the melting point was 168.9 to 172.3 °C.
Under `Cn1cncc1CCNC(=O)[C@H]1CN(C2c3ccc(Cl)cc3CCc3cc(Br)cnc32)CCN1C(=O)CC1CCN(C(=O)OC(C)(C)C)CC1` (single isomer, unassigned) [Example 37] stands 141.7 to 143.2 °C; under `Cn1cncc1CCNC(=O)[C@H]1CN(C2c3ccc(Cl)cc3CCc3cc(Br)cnc32)CCN1C(=O)CC1CCNCC1` (single isomer, unassigned) [Example 38], 136.1 to 139.5 °C; under `Cn1cncc1CCNC(=O)[C@H]1CN(C2c3ccc(Cl)cc3CCc3cc(Br)cnc32)CCN1C(=O)CC1CCN(C(N)=O)CC1` (single isomer, unassigned) [Example 39], 148.1 to 150.4 °C.
The compound `Cn1cncc1CCN(Cc1ccccc1)C(=O)[C@H]1CN(C2c3ccc(Cl)cc3CCc3cc(Br)cnc32)CCN1C(=O)NC1CCCCC1` (single isomer, unassigned) [Example 60] gave a melting point of 130 to 139 °C.
Under `Cn1cncc1CCN(Cc1ccccc1)C(=O)[C@H]1CN(C2c3ccc(Cl)cc3CCc3cc(Br)cnc32)CCN1C(=O)NC(C)(C)C` (single isomer, unassigned) [Example 61] stands 127 to 130 °C; under `Cn1cncc1CCN(Cc1ccccc1)C(=O)[C@H]1CN(C2c3ccc(Cl)cc3CCc3cccnc32)CCN1C(=O)OC(C)(C)C` (single isomer, unassigned) [Example 62], 93.1 to 99.8 °C; under `CC(C)(CCNC(=O)[C@H]1CN(C2c3ccc(Cl)cc3CCc3cc(Br)cnc32)CCN1C(=O)OCc1ccccc1)n1ccnc1` (stereo partly drawn) [Example 3], 103 to 106 °C.
